Assay results reported in patent US4410518A, “N-Phosphinoaminosulfinylcarbamate esters and their use as insecticides” (priority 1982, dated 1983).
Like-named read-outs stand apart in the source and are kept apart here.

Experiments:
[1] = mammalian toxicity in mice (oral); conditions: mouse, in vivo, corn oil carrier, Swiss white mice
Procedure: Mammalian toxicity was determined against Swiss white mice. The test compound was applied orally using corn oil as the carrier. Results are given as LD50 in mg of compound per kg body weight.
(§1) In that table the term "LD50 " represents the dose needed to kill 50% of the test animals. In interpreting the values in Table 1 below, the lower the value for LD50 for house flies, the greater the insecticidal potency or toxicity of that particular compound. On the other hand, the higher the value of LD50 for mice, the lower the mammalian toxicity or the greater is the mammalian safety of such compound.

[2] = test system: house flies, Musca domestica; test: insecticidal activity against house flies (topical, 24 h mortality); assay type: in vivo; conditions: for LD50: Musca domestica, read-out: House flies LD50
Procedure: Representative carbamate esters of the invention were tested for insecticidal activity against house flies, Musca domestica. Stock 1% concentrated solutions of each of the test compounds were made in acetone, and such solutions diluted with acetone to a concentration of 0.001-0.1%. House flies were treated topically on the notum by 1 μl of each of the diluted acetone solutions and percent mortality was counted 24 hours after application. The insects were held at a constant temperature of 60° F. Results are given in μg/g.
as §1

[3] = test system: house flies, Musca domestica; conditions: 'is known to have', no unit printed beside the value; cited from earlier work
[4] = topical on the notum, 1 μl acetone solution, 24 hours after application

CCOP(=S)(OCC)N(C)[S+]([O-])N(C)C(=O)Oc1cccc2c1OC(C)(C)C2 (centres unmarked) [Example 1, 2,3-dihydro-2,2-dimethyl-7-benzofuranyl[[(diethoxyphosphinothioyl)methylamino]sulfinyl]methylcarbamate] gave an LD50 [1] of 65 mg/kg and an LD50 [2, 4] of 14 mg/kg.

CCCN([S+]([O-])N(C)C(=O)Oc1cccc2c1OC(C)(C)C2)P(=S)(OCC)OCC (centres unmarked) [Example 2, 2,3-dihydro-2,2-dimethyl-7-benzofuranyl[[(diethoxyphosphinothioyl)propylamino]sulfinyl]methylcarbamate] gave an LD50 [1] of 60 mg/kg and an LD50 [2, 4] of 16 mg/kg.

For CCCCCCN([S+]([O-])N(C)C(=O)Oc1cccc2c1OC(C)(C)C2)P(=S)(OCC)OCC (centres unmarked) [Example 3, 2,3-dihydro-2,2-dimethyl-7-benzofuranyl[[(diethoxyphosphinothioyl)hexylamino]sulfinyl]methylcarbamate], the LD50 [1] was 140 mg/kg and the “House flies LD50” value [2, 4] was 19 µg/g.

Work on CCCCCCCCCCCCN([S+]([O-])N(C)C(=O)Oc1cccc2c1OC(C)(C)C2)P(=S)(OCC)OCC (centres unmarked) [Example 4, 2,3-dihydro-2,2-dimethyl-7-benzofuranyl[[(diethoxyphosphinothioyl)dodecylamino]sulfinyl]methylcarbamate] yielded an LD50 [1] of over 1000 mg/kg.

CN(C(=O)Oc1cccc2c1OC(C)(C)C2)[S+]([O-])N(C)P1(=S)OCC(C)(C)CO1 (centres unmarked) [Example 5, 2,3-Dihydro-2,2-dimethyl-7-benzofuranyl[[(5,5-dimethyl-2-thioxo-1,3,2-dioxaphosphorinan-2-yl)methylamino]sulfinyl]methylcarbamate] gave an LD50 [1] of 70 mg/kg and an LD50 [2, 4] of 3 mg/kg.

In the case of CCCCCCN([S+]([O-])N(C)C(=O)Oc1cccc2c1OC(C)(C)C2)P1(=S)OCC(C)(C)CO1 (centres unmarked) [Example 6, 2,3-dihydro-2,2-dimethyl-7-benzofuranyl[[(5,5-dimethyl-2-thioxo-1,3,2-dioxaphosphorinan-2-yl)hexylamino]sulfinyl]methylcarbamate], the LD50 [1] was 105 mg/kg.

With CCOP(=O)(OCC)N(C)[S+]([O-])N(C)C(=O)Oc1cccc2c1OC(C)(C)C2 (centres unmarked) [Example 7, 2,3-dihydro-2,2-dimethyl-7-benzofuranyl[[(diethoxyphosphinyl)methylamino]sulfinyl]methylcarbamate] the LD50 ([2]; topical, 24 h) was 19 mg/kg.

Work on CCCN([S+]([O-])N(C)C(=O)Oc1cccc2c1OC(C)(C)C2)P(=O)(OCC)OCC (centres unmarked) [Example 8, 2,3-dihydro-2,2-dimethyl-7-benzofuranyl[[(diethoxyphosphinyl)propylamino]sulfinyl]methylcarbamate] yielded an LD50 [1] of 100 mg/kg.

Molecule COP(=S)(OC)N(C)[S+]([O-])N(C)C(=O)ON=C(C)SC (centres unmarked) [Example 9, methyl N-[[[[[(dimethoxyphosphinothioyl)methylamino]sulfinyl]methylamino]carbonyl]oxy]ethanimidothioate] has an LD50 [1] of 120 mg/kg and an LD50 [2, 4] of 24 mg/kg.

For CCN([S+]([O-])N(C)C(=O)ON=C(C)SC)P(=S)(OC)OC (centres unmarked) [Example 10, methyl N-[[[[[(dimethoxyphosphinothioyl)ethylamino]sulfinyl]methylamino]carbonyl]oxy]ethanimidothioate], the LD50 [2, 4] was 14 mg/kg.

CCOP(=S)(OCC)N(C)[S+]([O-])N(C)C(=O)ON=C(C)SC (centres unmarked) [Example 11, methyl N-[[[[[(diethoxyphosphinothioyl)methylamino]sulfinyl]methylamino]carbonyl]oxy]ethanimidothioate] showed an LD50 [1] of 130 mg/kg and an LD50 [2, 4] of 12 mg/kg.

With CCOP(=S)(OCC)N(CC)[S+]([O-])N(C)C(=O)ON=C(C)SC (centres unmarked) [Example 12, methyl N-[[[[[(diethoxyphosphinothioyl)ethylamino]sulfinyl]methylamino]carbonyl]oxy]ethanimidothioate] the LD50 [2, 4] was 13 mg/kg.

Molecule CCCN([S+]([O-])N(C)C(=O)ON=C(C)SC)P(=S)(OCC)OCC (centres unmarked) [Example 13, methyl N-[[[[[(diethoxyphosphinothioyl)propylamino]sulfinyl]methylamino]carbonyl]oxy]ethanimidothioate] has an LD50 [1] of 120 mg/kg and an LD50 [2, 4] of 8 mg/kg.

CCOP(=S)(OCC)N(C(C)C)[S+]([O-])N(C)C(=O)ON=C(C)SC (centres unmarked) [Example 14, methyl N-[[[[[(diethoxyphosphinothioyl)isopropylamino]sulfinyl]methylamino]carbonyl]oxy]ethanimidothioate] gave an LD50 [2, 4] of 11 mg/kg.

CCOP(=S)(OCC)N(C(C)CC)[S+]([O-])N(C)C(=O)ON=C(C)SC (centres unmarked) [Example 15, methyl N-[[[[[(diethoxyphosphinothioyl)sec-butylamino]sulfinyl]methylamino]carbonyl]oxy]ethanimidothioate] showed an LD50 [2, 4] of 10 mg/kg.

For CCOP(=S)(OCC)N(C1CCCC1)[S+]([O-])N(C)C(=O)ON=C(C)SC (centres unmarked) [Example 16, methyl N-[[[[[(diethoxyphosphinothioyl)cyclopentylamino]sulfinyl]methylamino]carbonyl]oxy]ethanimidothioate], the LD50 [2, 4] was 12 mg/kg.

CCCCCCN([S+]([O-])N(C)C(=O)ON=C(C)SC)P(=S)(OCC)OCC (centres unmarked) [Example 17, Methyl N-[[[[[(diethoxyphosphinothioyl)hexylamino]sulfinyl]methylamino]carbonyl]oxy]ethanimidothioate] gave an LD50 [1] of 250 mg/kg and an LD50 [2, 4] of 23 mg/kg.

Molecule CCOP(=S)(OCC)N(C1CCCCC1)[S+]([O-])N(C)C(=O)ON=C(C)SC (centres unmarked) [Example 18, methyl N-[[[[[(diethoxyphosphinothioyl)cyclohexylamino]sulfinyl]methylamino]carbonyl]oxy]ethanimidothioate] has an LD50 [2, 4] of 18 mg/kg.

CSC(C)=NOC(=O)N(C)[S+]([O-])N(C)P1(=S)OCC(C)(C)CO1 (centres unmarked) [Example 19, methyl N-[[[[[(5,5-dimethyl-2-thioxo-1,3,2-dioxaphosphorinan-2-yl)(methyl)amino]sulfinyl]methylamino]carbonyl]oxy]ethanimidothioate] gave an LD50 [1] of 200 mg/kg and an LD50 [2, 4] of 58 mg/kg.

CCN([S+]([O-])N(C)C(=O)ON=C(C)SC)P1(=S)OCC(C)(C)CO1 (centres unmarked) [Example 20, methyl N-[[[[[(5,5-dimethyl-2-thioxo-1,3,2-dioxaphosphorinan-2-yl)(ethyl)amino]sulfinyl]methylamino]carbonyl]oxy]ethanimidothioate] gave an LD50 [2, 4] of 120 mg/kg.

CCOP(=S)(OCC)N(C)[S+]([O-])N(C)C(=O)ON=C(SC)C(=O)N(C)C (centres unmarked) [Example 21, methyl 2-(dimethylamino)-N-[[[[[(diethoxyphosphinothioyl)methylamino]sulfinyl]methylamino]carbonyl]oxy]-2-oxoethanimidothioate] showed an LD50 [1] of 23 mg/kg and an LD50 [2, 4] of 15 mg/kg.

CCOP(=S)(OCC)N(CC)[S+]([O-])N(C)C(=O)ON=C(SC)C(=O)N(C)C (centres unmarked) [Example 22, methyl 2-(dimethylamino)-N-[[[[[(diethoxyphosphinothioyl)ethylamino]sulfinyl]methylamino]carbonyl]oxy]-2-oxoethanimidothioate] showed an LD50 [2, 4] of 18 mg/kg.

In the case of CCOP(=S)(OCC)N(C(C)C)[S+]([O-])N(C)C(=O)ON=C(SC)C(=O)N(C)C (centres unmarked) [Example 23, methyl 2-(dimethylamino)-N-[[[[[(diethoxyphosphinothioyl)isopropylamino]sulfinyl]methylamino]carbonyl]oxy]-2-oxoethanimidothioate], the LD50 [1] was 22 mg/kg and the LD50 [2, 4] was 10 mg/kg.

CCOP(=S)(OCC)N(C1CCCC1)[S+]([O-])N(C)C(=O)ON=C(SC)C(=O)N(C)C (centres unmarked) [Example 24, Methyl 2-(dimethylamino)-N-[[[[[(diethoxyphosphinothioyl)cyclopentylamino]sulfinyl]methylamino]carbonyl]oxy]-2-oxoethanimidothioate] gave an LD50 [2, 4] of 16 mg/kg.

Work on CSC(=NOC(=O)N(C)[S+]([O-])N(C)P1(=S)OCC(C)(C)CO1)C(=O)N(C)C (centres unmarked) [Example 25, methyl 2-(dimethylamino)-N-[[[[[(5,5-dimethyl-2-thioxo-1,3,2-dioxaphosphorinan-2-yl)(methyl)amino]sulfinyl]methylamino]carbonyl]oxy]-2-oxoethanimidothioate] yielded an LD50 [1] of 25 mg/kg and an LD50 [2, 4] of 150 mg/kg.

For CNC(=O)Oc1cccc2c1OC(C)(C)C2 [carbofuran, 2,3-dihydro-2,2-dimethyl-7-benzofuranyl methylcarbamate], the “LD50 for house flies (carbofuran, known)” value [3] is listed as “about 6.5”.
